Measured values reported in patent US8946383B2, “Obtaining cocoa extracts rich in bioactive peptides with ACE and PEP enzyme inhibitory activity” (Naturex, priority 2008, dated 2015).
Where a SMILES comes first, the peptide text is derived from it. The star is where a group is joined. Cbz = O=C(OCc1ccccc1)*

Test system: CL4176 transgenic strain of C. elegans
Experiment: Paralysis assay after induction of Ab peptide expression in C. elegans
Assay type: in vivo, Caenorhabditis elegans
Conditions: third day after inducing Ab peptide expression at 23° C.; 100 μl of fraction per plate; ZPP 0.1 mM
Method: An oxidative stress assay using the CL4176 transgenic strain of C. elegans was carried out, characterized by expressing the human amyloid beta-peptide (Abl-42) after temperature induction.
Prior data in the literature indicate that the formation of amyloid beta-peptide plaques is preceded by oxidative stress (Drake et al, “Oxidative stress precedes fibrillar deposition of Alzheimer's disease amyloid beta-peptide (1-42) in a transgenic Caenorhabditis elegans model” Neurobiol Aging 2003, 24(3):415-20). Therefore, it is interesting to evaluate if the hypothetical reduction of fibrillar deposition of Ab peptides in the neurons produced by the action of a molecule or compound gives rise to greater resistance against oxidative stress treatments. Furthermore, the expression of said peptide in these transgenic animals produces a paralysis that can be evaluated after adding the molecule or compound of interest.
To carry out the experiment, worms of the CL4176 strain having a synchronized age by means of plate cultivation of NG at 16° C. were obtained. The eggs were collected in NG plates which contained 100 μl of each peptide fraction (F11, F12, F14 and F18). […] For the first 3 days after induction, the number of worms paralyzed in each assayed condition was analyzed. […] The plates were incubated at 23° C. and after 5 hours the total number of worms that survived treatment were counted.

O=C[C@@H]1CCCN1C(=O)[C@@H]1CCCN1C(=O)OCc1ccccc1 [Z-prolyl prolinal] (Cbz-Pro-Pro-aldehyde)
percentage of non-paralyzed worms: 99.44%
